# Laboratory results taken from patent US5721213A, “Peptides, active as inhibitors of platelet aggregation” (Nippon Steel Corporation, priority 1993, dated 1998).
# Non-standard residues stand in square brackets, D forms with d. Residues, ends and D or L forms follow the SMILES beside them. Sar = CNCC(=O)O
# Columns and labels:
# mouse = assay: acute toxicity test; assay type: in vivo; details: intravenously injected, 100 mg/Kg
# platelet aggregation = details: times as strong as RGDS; cited from earlier work
# [1] = system: platelets activated by ADP; details: 400 μM; cited from earlier work
compound,measurement,setting,value
"C[C@H](NC(=O)[C@H](CO)NC(=O)[C@@H]1CCCN1)C(=O)N(C)CC(=O)N[C@@H](CC(=O)O)C(=O)N[C@@H](Cc1c[nH]c2ccccc12)C(=O)O [Example 1, Pro-Ser-Ala-Sar-Asp-Trp-OH] (H-PSA[Sar]DW-OH)",acute toxicity,mouse,no toxicity was observed
arginine-glycine-aspartic acid-phenylalanine [RGDF],platelet aggregation-inhibiting activity relative to RGDS,platelet aggregation,4-5 times
glycine-arginine-glycine-aspartic acid-serine-proline [GRGDSP],inhibition of aggregation of platelets activated by ADP,[1],completely inhibited
